Laboratory results reported in patent publication US10633630B2, “Acceleration of Mycobacterium growth” (ST GEORGE'S HOSPITAL MEDICAL SCHOOL, priority 2014, dated 2020).
Non-standard residues stand in square brackets, D forms with d. No end group written: not given here. βAla = NCCC(=O)O

Columns and labels:
[1] = Growth curves at various concentrations of peptide (Example 5); assay type: cell-based; settings: for doubling time relative to the control / lag phase relative to the control without supplement: above the optimum concentration; for effects on the rate of division: below the optimum concentration; for optimum concentration of supplement: concentrations up to 80 μg/ml tested
Procedure: Part (A) presents results for the TiKa 14D peptide and part (B) presents results for the TiKa 102 peptide.
TiKa 14D and TiKa 102 were tested to identify the optimum concentration of supplement. Results are presented in FIGS. 5A and B for concentrations up to 80 μg/ml. […] Below the optimum concentration, the lag phase was either not affected (10 μg/ml of TiKa 14D) or was inhibited relative to the control (slightly for TiKa 14D at 5 μg/ml and for TiKa 102 at 20 μg/ml).

[2] = tested on: Mycobacterium avium subspecies paratuberculosis (MAP); experiment: Screen of TiKa peptide supplements for growth effects on MAP cultures (Example 1); assay type: cell-based; settings: supplemented at 20 mg/ml (final); over a 20 day period; vs identical inocula with no added supplement
Procedure: FX1=reduction in lag phase, FX2=increase in division rate.
The lag phase and division rate can be determined using routine methods in the art. Typically, growth and expansion of cells of a bacterial culture is determined by monitoring the optical density (OD) of the culture (e.g. the OD600 or the OD800 as illustrated in the Examples section below). The lag phase and the division rate can be determined from plots of the OD over time.
Using Mycobacterium avium subspecies paratuberculosis (MAP) as a target organism a bank of 109 short L enantiomer peptides and one D enantiomer peptide (TiKa 14D) were screened for the ability to supplement defined media (see below) to produce growth effects that produce biomass more rapidly than identical inocula of MAP with no added supplement.
The effects can be defined as: • A significant decrease in lag time (i.e the time it takes to recover from subculture and begin growing exponentially). With standard low inoculum this is at least 5 days but there is evidence that this phase can also be greatly extended in low inocula (see FIGS. 3 and 4). • An increase in division rate.

[3] = tested on: Mycobacterium avium subspecies paratuberculosis; assay type: cell-based; settings: TiKa 14D 20 μg/ml
[4] = tested on: Mycobacterium tuberculosis
[5] = tested on: MTB; experiment: Time to positivity in BacTAlert liquid media system (Example 4); assay type: cell-based
[6] = tested on: cultures with different starting OD600 values; experiment: Effects of TiKa 14D on cultures with different starting OD600 values (Example 3); assay type: cell-based; settings: 20 μg/ml
Procedure: The effects of TiKa 14D on cultures with different starting OD600 values were tested. The TiKa 14D was present at a concentration of 20 μg/ml.
As shown in this Figure, at a starting OD600 of 0.2 TiKa 14D reduced the time to reach an OD600 of 0.6 by 7 days relative to a control without the supplement. At a starting OD600 of approximately 0.4, TiKa 14D reduced the time to reach an OD600 of 0.6 by 2 days relative to the control without the supplement.

Row | Substance | doubling time relative to the control [1] | lag phase relative to the control without supplement [1] | effects on the rate of division [1] | optimum concentration of supplement [1] [µg/mL] | effect on MAP test culture (decrease in lag time, increase in division rate) [2] | further results
1 | RRWRIVVIRVRR-BB-K(biotin) [TiKa 102] | still also reduced | still improved | decreased proportionally | 40 | positive effects | lag phase relative to the control ([1]; below the optimum concentration: 20 μg/ml): inhibited
2 | RRWRIVVIRVRR [TiKa 69] | – | – | – | – | positive effects | –
3 | RRWRIVVIRVRR-bA-bA-C (RRWRIVVIRVRR[βAla][βAla]C) [TiKa 86] | – | – | – | – | positive effects | –
4 | WKIVFWWRR [TiKa 14D] | still also reduced | still improved | decreased proportionally | 20 | positive effects | lag phase relative to the control ([1]; below the optimum concentration: 5 μg/ml): inhibited; lag phase relative to the control ([1]; below the optimum concentration: 10 μg/ml): not affected; effect on growth curve [3]: positive effects; effect on growth curve [4]: positive effects; Time to Positivity (TTP) compared to control media [5]: decreased; reduction of the time to reach an OD600 of 0.6 relative to a control without the supplement ([6]; starting OD600 of 0.2): 7 days; reduction of the time to reach an OD600 of 0.6 relative to a control without the supplement ([6]; starting OD600 of approximately 0.4): 2 days
5 | RLARIVVIRVAR-BB-K(biotin) [TiKa 103] | – | – | – | – | positive effects | –
